The values below come from PubChem BioAssay (NCI).

Among the test systems are 786-0 renal; EKVX NSCLC; HCT-116 colon; HS 578T breast; HT29 colon; KM12 colon; LOX IMVI melanoma; OVCAR-3 ovarian; SK-MEL-5 melanoma; UO-31 renal.
Holding throughout (assay): NCI-60 cell line screen, 48 h

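Growth conditions: 96-well plates. Treatment: test compound, 48 hours, 5 concentrations. Analysis: linear interpolation between bracketing concentrations; unreached endpoints set to highest concentration. GI50 = concentration required for 50% inhibition of growth. TGI denotes the concentration required for complete inhibition of growth.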 Residues, ends and D or L forms follow the SMILES beside them. *: point of attachment. Cbz = O=C(OCc1ccccc1)*

With `CC(C)C[C@@H](C=O)NC(=O)[C@H](CC(C)C)NC(=O)[C@H](CC(C)C)NC(=O)OCc1ccccc1` (Cbz-Leu-Leu-Leu-aldehyde), the GI50 in the assay with 786-0 renal was 0.349 µM; with EKVX NSCLC it was 0.682 µM; in the assay on HCT-116 colon, 0.294 µM; in the assay with HS 578T breast, 0.437 µM; in the assay on HT29 colon, 0.268 µM; in the assay with KM12 colon, 0.281 µM. The GI50 in the assay on LOX IMVI melanoma was 0.206 µM; in the assay on OVCAR-3 ovarian, 0.225 µM; in the assay with SK-MEL-5 melanoma, 0.349 µM; in the assay with UO-31 renal it was 0.252 µM. The TGI in the assay with 786-0 renal was 1.4 µM; in the assay on EKVX NSCLC, above 100 µM; in the assay with HCT-116 colon, 1.04 µM; with HS 578T breast, above 100 µM; in the assay with HT29 colon, 0.647 µM; in the assay with KM12 colon, 0.751 µM. For the same compound, the TGI in the assay on LOX IMVI melanoma was found to be 0.46 µM; in the assay with OVCAR-3 ovarian, 0.538 µM; with SK-MEL-5 melanoma, 1.08 µM; in the assay on UO-31 renal it was 0.943 µM.
For `Oc1ccccc1/C=N\NC(=S)N/N=C/c1ccccc1O`, the GI50 was 3.49 µM with 786-0 renal; 2.57 µM in the assay on EKVX NSCLC; 1.37 µM with HCT-116 colon; 10.7 µM in the assay on HS 578T breast; 6.63 µM in the assay with HT29 colon; 3.11 µM in the assay with KM12 colon. Also, the GI50 was 1.4 µM in the assay with LOX IMVI melanoma, 0.451 µM with OVCAR-3 ovarian, 1.69 µM with SK-MEL-5 melanoma and 0.489 µM in the assay with UO-31 renal. The TGI in the assay on 786-0 renal is 20 µM; with EKVX NSCLC, 24.3 µM; in the assay with HCT-116 colon, above 100 µM; with HS 578T breast it was 69.6 µM; with HT29 colon, 48.8 µM; in the assay with KM12 colon, 21.1 µM. Besides, the TGI with LOX IMVI melanoma turned out to be 27.7 µM; with OVCAR-3 ovarian, 24.6 µM; with SK-MEL-5 melanoma, 8.53 µM; in the assay on UO-31 renal it was 4.91 µM.
On to `COc1ccc(NC(=O)c2ccc(NC3=C(Cl)C(=O)N(Cc4ccccc4)C3=O)cc2)c(OC)c1`, for which the GI50 was 23.3 µM with 786-0 renal; 64.9 µM in the assay on EKVX NSCLC; 5.4 µM in the assay with HCT-116 colon; above 100 µM in the assay with HS 578T breast; 41.5 µM in the assay with HT29 colon; 27.7 µM in the assay on KM12 colon. The GI50 with LOX IMVI melanoma is 30.1 µM; with OVCAR-3 ovarian it was 15.1 µM; in the assay on SK-MEL-5 melanoma, 26.2 µM; in the assay with UO-31 renal it was 40.5 µM. Besides, the TGI in the assay on 786-0 renal is above 100 µM; with EKVX NSCLC, above 100 µM; in the assay with HCT-116 colon, 25.6 µM; with HS 578T breast it was above 100 µM; in the assay on HT29 colon it was above 100 µM; in the assay with KM12 colon, 92.8 µM. Further, the TGI with LOX IMVI melanoma was above 100 µM; in the assay with OVCAR-3 ovarian, 33.2 µM; in the assay on SK-MEL-5 melanoma it was 75.2 µM; with UO-31 renal, above 100 µM.
`C/C=C(\C)C(=O)O[C@H]1C=CC(=O)O[C@H]1COC(=O)[C@H](C)O`: the GI50 was 6.59 µM in the assay on 786-0 renal; 14.5 µM in the assay with EKVX NSCLC; 2.72 µM in the assay on HCT-116 colon; 7.37 µM with HS 578T breast; 3.76 µM in the assay with HT29 colon; 8.81 µM with KM12 colon. Also, the GI50 with LOX IMVI melanoma is 3.59 µM; in the assay with OVCAR-3 ovarian it was 3.44 µM; in the assay with SK-MEL-5 melanoma, 4.62 µM; in the assay on UO-31 renal, 9.79 µM. The TGI came out at 20.9 µM in the assay with 786-0 renal; 28.9 µM in the assay with EKVX NSCLC; 10.9 µM with HCT-116 colon; 26 µM in the assay with HS 578T breast; 17.4 µM with HT29 colon; 27 µM with KM12 colon. The TGI worked out at 14.8 µM with LOX IMVI melanoma, 14 µM in the assay with OVCAR-3 ovarian, 16.7 µM with SK-MEL-5 melanoma and 25.5 µM with UO-31 renal.
Take `CC(C)C(=O)c1c(C(F)(F)F)n([O-])c2ccccc2[n+]1=O`: the GI50 is 1.65 µM in the assay with 786-0 renal; 0.876 µM in the assay on EKVX NSCLC; 1.25 µM in the assay with HCT-116 colon; 5.4 µM in the assay on HS 578T breast; 9.43 µM in the assay with HT29 colon; 0.563 µM with KM12 colon. For the same compound, the GI50 in the assay with LOX IMVI melanoma is 1.85 µM; with OVCAR-3 ovarian, 0.493 µM; with SK-MEL-5 melanoma, 1.63 µM; with UO-31 renal, 1.18 µM. The TGI with 786-0 renal was 3.73 µM; in the assay with EKVX NSCLC, 2.57 µM; in the assay on HCT-116 colon it was 3.99 µM; with HS 578T breast, 18.1 µM; in the assay on HT29 colon it was above 36.4 µM; in the assay on KM12 colon it was 1.65 µM. For the same compound, the TGI in the assay on OVCAR-3 ovarian turned out to be 1.24 µM; in the assay with SK-MEL-5 melanoma it was 3.03 µM; in the assay on UO-31 renal it was 3.11 µM.
`Cc1[nH]nc2ncc(C(=O)N3CCC[C@H]3c3ccc(Cl)cc3)cc12`: the GI50 in the assay with 786-0 renal was 47.7 µM; with EKVX NSCLC, 79.8 µM; with HCT-116 colon, 33.1 µM; in the assay with HS 578T breast, above 100 µM; in the assay with HT29 colon it was above 100 µM; in the assay with KM12 colon, 51.6 µM. For the same compound, the GI50 was 47.2 µM in the assay with LOX IMVI melanoma, 64.2 µM in the assay with OVCAR-3 ovarian, 31 µM with SK-MEL-5 melanoma and 61.2 µM in the assay on UO-31 renal. In addition, the TGI with 786-0 renal, in the assay on EKVX NSCLC, in the assay with HCT-116 colon, in the assay with HS 578T breast, in the assay on HT29 colon and in the assay on KM12 colon was above 100 µM each time. In addition, the TGI with LOX IMVI melanoma, in the assay with OVCAR-3 ovarian, in the assay on SK-MEL-5 melanoma and with UO-31 renal was above 100 µM each time.
For the compound `Cc1sc2c(c1C)C(c1ccc(Cl)cc1)=N[C@@H](CC(=O)NCCCN1CCN(C)CC1)c1nnc(C)n1-2`, the GI50 in the assay with 786-0 renal is 5.48 µM; in the assay on EKVX NSCLC, above 34.6 µM; with HCT-116 colon, 0.579 µM; with HS 578T breast it was 0.216 µM; in the assay on HT29 colon, 0.198 µM; with KM12 colon it was 19.6 µM. Besides, the GI50 in the assay with LOX IMVI melanoma was 0.362 µM; in the assay on OVCAR-3 ovarian, 1.33 µM; in the assay with SK-MEL-5 melanoma, 6.36 µM; in the assay with UO-31 renal it was 3.83 µM. Further, the TGI in the assay on 786-0 renal was above 100 µM; in the assay on EKVX NSCLC it was above 100 µM; in the assay with HCT-116 colon it was above 100 µM; with HS 578T breast, above 22.7 µM; with HT29 colon, above 100 µM; in the assay on KM12 colon, above 100 µM. The TGI in the assay on LOX IMVI melanoma is above 69.9 µM; in the assay on OVCAR-3 ovarian, above 100 µM; in the assay with SK-MEL-5 melanoma it was above 100 µM; with UO-31 renal, above 100 µM.
On to `CCC1(c2ccc(N)cc2)CCC(=O)NC1=O` (centres undefined), for which the TGI in the assay with 786-0 renal is above 5000 µM; with EKVX NSCLC it was above 5000 µM; in the assay with HCT-116 colon it was above 5000 µM; in the assay on HS 578T breast it was above 5000 µM; with HT29 colon, above 3750 µM; with KM12 colon it was above 3870 µM. The TGI was above 3970 µM in the assay with LOX IMVI melanoma, above 3970 µM in the assay with OVCAR-3 ovarian, 3670 µM with SK-MEL-5 melanoma and above 3950 µM in the assay with UO-31 renal.
